Measurements as given in patent US12006343B2, “C4BP-based compounds for treating immunological diseases” (FUNDACIO INSTITUT D'INVESTIGACIO BIOMEDICA DE BELLVITGE …, priority 2017, dated 2024).

Columns and labels:
[1] = test system: human monocyte-derived DCs; assay: Immunomodulatory activity over human monocyte-derived DCs: CD83/CD86 surface expression by flow cytometry after LPS maturation; format: cell-based; conditions: Example 1
Experimental: In Vitro Functional Assessment of the Immunomodulatory Activity of Full-Length C4BP(β−) and C4BP(β−) Variants Over DCs
The inventors used for the in vitro study both C4BP(β+) (WT) and recombinant C4BP(β−) isoforms, and the above-referred mutants or variants: Mutant 1 and Mutant 2. C4BP(β+) isoforms refer to the major C4BP α7β1 plus the minor C4BP α6β1 isoforms (both in complex with ProS) purified from pooled human plasma.
RPMI 1640 was supplemented with 100 μg/ml of streptomycin, 100 IU/ml of penicillin, 2 mM L-glutamine (all from Invitrogen, Carlsbad, CA) and 10% heat-inactivated fetal bovine serum (Linus, Cultek, Spain) (complete medium), unless otherwise stated.
Peripheral blood mononuclear cells (PBMCs) were obtained from buffy coat preparations collected from healthy donors from the Blood and Tissue Bank (Barcelona, Spain) after Ficoll-Paque™ density centrifugation (GE Healthcare Bio-Sciences AB; Uppsala, Sweden). For surface phenotype determination, monocytes were plated at 1×10^6 cells/ml in 60 mm culture plates (Corning, Spain), in RPMI 1640 medium without serum, and allowed to adhere for 2 h at 37° C. in 5% CO2. The non-adherent cells were removed by washing in PBS.
Monocyte-derived DCs were generated supplementing the monocyte cultures with complete RPMI 1640 medium plus GM-CSF (800 UI/ml) and IL-4 (500 UI/ml) (both from Gentaur, Kampenhout, Belgium) at day 0 and day 3 of culture. For DC maturation, at day 5 iDCs were further stimulated for 48 h with 5 μg/ml LPS (Escherichia coli 055.B5, Sigma L2880, Copenhagen, Denmark).
Staining using the fluorescent dye 7-amino-actinomycin D (7-AAD) (BD Pharmigen) and flow cytometry analysis was employed to assess the viability status of C4BP-treated and untreated DCs.
Cell surface phenotypes were analyzed by flow cytometry using the following mAbs: FITC-conjugated anti-CD83 (HB15a) and PE-conjugated anti-CD86 (HA5.2B7) (all from Beckman-Coulter). The respective isotype controls FITC-conjugated anti-IgG2b (H2) and PE-conjugated anti-IgG2b (H2), were from the same commercial sources. After washing with PBS, cells were subsequently stained with 3 μl mAb/10^5 cells in 100 μl of FACS buffer (PBS containing 1% BSA and 0.1% sodium azide) for 20 min at room temperature. To exclude dead cells and debris, DCs were gated according to forward scatter (FSC) and side scatter (SSC) parameters. Stained cells were analyzed using a FACSCalibur (Becton Dickinson, Franklin Lakes, NJ) equipped with CellQuestPro software (Becton Dickinson).
In Vitro Functional Assessment of C4BP(β−) Immunomodulatory Activity Over DCs
The inventors used for the in vitro study both C4BP(+) and C4BP(β−) isoforms. C4BP(3+) isoforms refer to the major C4BP α7β1 plus the minor C4BP α6β1 isoforms (both in complex with ProS) purified from pooled human plasma, as previously described (Dahlbäck B. 1983. Biochem J., 209:847-56).

[2] = test system: Balb/c male mice, CAIA model; format: in vivo, mouse; conditions: for ankle thickness: C4BP(β−) 50 μg sc d3 and d5, dexamethasone 1 mg/kg po d5-11, Enbrel 30 mg/kg sc d5-11; for body weight vs CAIA control group: mouse, in vivo
Text: Collagen-antibody induced arthritis (CAIA) is a simple mouse model of human rheumatoid arthritis (RA) induced by the systemic administration of a cocktail of monoclonal antibodies directed against conserved auto-antigenic collagen type II epitopes, followed by a single injection of lipopolysaccharide (LPS). CAIA is a useful model to study the effector inflammatory phase of arthritis without involving the priming phase of the immune response. The murine CAIA model shares several clinical, immunological and pathological features with RA. Therefore, this model is useful to study the pathogenic mechanisms involved in RA disease as well as for testing new therapies.
Balb/c male mice aged 7-8 weeks were supplied by Envigo. The animals were acclimated during 12 days. The animals were maintained in an environmentally controlled room with ventilation, temperature (22±2° C.), relative humidity (35-65%), and cycle light/dark (12 h/12 h). The animals were housed in groups of 3-5 animals/cage. The maintenance diet was supplied by Harlan Interfauna Ibérica, S. L. (“2014 Harlan Teklad Global Diets”) and they were feed diet and water ad libitum.
Plasmatic C4BP(β−) was supplied at a concentration of 6.2 mg/ml. C4BP(β−) solutions were prepared to the desired concentration 0.33 mg/ml (for 50 μg doses) by dilution with Dulbecco's phosphate-buffered saline (DPBS) of C4BP(β−) 6.2 mg/ml stock solution.
Two reference compounds were used: dexamethasone (Sigma, Ref. D1756) and Enbrel® (etanercept) (Pfizer, Ref. 655950).
Reference compound dexamethasone was dissolved in vehicle (0.1% Tween-80+99% carboxymethyl cellulose (CMC) (0.5% w/v) in water at a concentration of 0.1 mg/ml.
Enbrel® was prepared at 6 mg/ml in DPBS by dilution of 50 mg/mL stock solution.
Experimental Procedure Day 0: Arthritis Induction
On day 0, animals for experimental group C4BPd3 were randomly selected (n=8) and identified using tail code numbers and weighted.
Each mouse was sensitized by the administration of 2 mg anti-type II collagen antibodies cocktail (ArthritoMAB™ cocktail solution, 0.2 mL, i.v., day 0) in the caudal vein.
Day 3: LPS Synchronization
Animals were intraperitoneally administered with 0.1 mL of LPS solution (0.7 mg/ml, 70 μg/animal).
50 μg of C4BP(β−) were administered subcutaneously at day 3 to treatment group C4BPd3.
50 μg of C4BP(β−) were administered subcutaneously at day 5 to treatment group C4BPd3.
Day 5: Animal Distribution
On day 5 after sensitization, the rest of the animals developing clinical signs of arthritis (n=18) were evaluated and distributed in base of CAIA+incidence. Animals were homogeneously randomized (arthritis score) into the CAIA control group, dexamethasone (1 mg/kg at days 5-11, p.o.) and Enbrel®-treated groups (30 mg/kg at days 5-11, s.c.) (n=6). Animals were identified using tail code numbers and weighted.
Group 2 was not included in the distribution because of the previous test item administration.
The arthritis score was determined using the criteria of Table 9.
Treatment: • C4BPd3 group: 50 μg of C4BP(β−) were subcutaneously injected to animals on days 3 and 5. Volume: 0.150 mL. • Reference compound treatments and CAIA control groups (days 5-11): • Enbrel®: 30 mg/kg of Enbrel® was subcutaneously administered to Enbrel group from days 5 to 11. Volume: 5 mL/kg. • Dexamethasone: 1 mg/kg dexamethasone was orally administered to dexamethasone group from days 5 to 11. Volume: 10 mL/kg. • CAIA control group: 0.150 mL of DPBS was subcutaneously administered from days 5 to 11. Arthritis Monitoring:
Body weights were registered daily from days 0-12 in C4BPd3 and from days 5-12 in CAIA control, dexamethasone and Enbrel® groups. Arthritis scores were determined by the same observer in order to avoid observer bias.
The study was finished at day 12.
Animals were anesthetized with isoflurane. Ankles and wrists thickness were measured using a dial thickness gauge. Serum samples were collected and stored at −20° C. […]

## C4BP(CCP5-CCP8)(α7β0) [Mutant 1]
[1]
  immunomodulatory activity over DCs: retains the immunomodulatory activity over DCs

## etanercept [Enbrel]
[2]; Enbrel 30 mg/kg sc days 5-11
  inhibition of arthritis score vs. CAIA controls d12: 47%
[2]; day 12
  ankle thickness: 2.73±0.04 mm
[2]; day 12, regimens as Table 8
  wrist thickness vs. CAIA control: No changes
[2]
  body weight vs CAIA control group: No remarkable differences
[2]; regimens as Table 8, vs CAIA control group
  arthritis scores / progression of arthritis: progressive reduction of arthritis scores over time

## C[C@@H]1C[C@H]2[C@@H]3CCC4=CC(=O)C=C[C@]4(C)[C@@]3(F)[C@@H](O)C[C@]2(C)[C@@]1(O)C(=O)CO [dexamethasone]
[2]; C4BP(β−) 50 μg sc days 3 and 5, dexamethasone 1 mg/kg po days 5-11
  inhibition of arthritis score vs. CAIA controls AUC: 73%
[2]; day 12
  ankle thickness: 2.63±0.05 mm
[2]
  body weight vs CAIA control group: No remarkable differences
